Results as given in ChEMBL document CHEMBL4145553, “Design, synthesis, and biological evaluation of novel amide and hydrazide based thioether analogs targeting Histone deacteylase (HDAC) enzymes” (Eur J Med Chem, 2018).
Calls of active or inactive are those of the source. The calls are words filed in the database; no cut-off is given here.

Columns and labels:
EKVX = assay: Growth inhibition of human EKVX cells assessed as cell growth at 10^-5 M incubated for 48 hrs by sulforhodamine B assay relative to control; type: functional; conditions: read-out: Activity
HCT-116 [1] = assay: Growth inhibition of human HCT116 cells assessed as cell growth at 10^-7 M incubated for 48 hrs by sulforhodamine B assay relative to control; type: functional; conditions: HCT-116, 48 h, read-out: Activity
K562 = assay: Growth inhibition of human K562 cells assessed as cell growth at 10^-4 M incubated for 48 hrs by sulforhodamine B assay relative to control; type: functional; conditions: K562, 48 h, read-out: Activity
ACHN [2] = assay: Growth inhibition of human ACHN cells assessed as cell growth at 10^-6 M incubated for 48 hrs by sulforhodamine B assay relative to control; type: functional; conditions: read-out: Activity
SW-620 [3] = assay: Growth inhibition of human SW620 cells assessed as cell growth at 10^-8 M incubated for 48 hrs by sulforhodamine B assay relative to control; type: functional; conditions: SW-620, 48 h, read-out: Activity
MDA-MB-231 = assay: Growth inhibition of human MDA-MB-231 cells assessed as cell growth at 10^-4 M incubated for 48 hrs by sulforhodamine B assay relative to control; type: functional; conditions: MDA-MB-231, 48 h, read-out: Activity
HCT-116 [4] = assay: Growth inhibition of human HCT116 cells assessed as cell growth at 10^-5 M incubated for 48 hrs by sulforhodamine B assay relative to control; type: functional; conditions: HCT-116, 48 h, read-out: Activity
Hs-578T = assay: Growth inhibition of human Hs 578T cells incubated for 48 hrs by sulforhodamine B assay; type: functional
SF-539 = assay: Growth inhibition of human SF539 cells assessed as cell growth at 10^-5 M incubated for 48 hrs by sulforhodamine B assay relative to control; type: functional; conditions: SF-539, 48 h, read-out: Activity
HL-60 [5] = assay: Induction of apoptosis in human HL60 cells assessed as increase in caspase-3 expression by qRT-PCR method; type: functional, cell-based
RPMI-8226 = assay: Growth inhibition of human RPMI8226 cells assessed as cell growth at 10^-7 M incubated for 48 hrs by sulforhodamine B assay relative to control; type: functional; conditions: RPMI-8226, 48 h, read-out: Activity
HL-60 [6] = assay: Induction of apoptosis in human HL60 cells assessed as live cells by propidium iodide/Annexin V staining based flow cytometry (reference value: 96.94%); type: functional
ACHN [7] = assay: Growth inhibition of human ACHN cells assessed as cell growth at 10^-8 M incubated for 48 hrs by sulforhodamine B assay relative to control; type: functional; conditions: read-out: Activity
786-0 [8] = assay: Growth inhibition of human 786-0 cells assessed as cell growth at 10^-6 M incubated for 48 hrs by sulforhodamine B assay relative to control; type: functional; conditions: 786-0, 48 h, read-out: Activity
ACHN [9] = assay: Growth inhibition of human ACHN cells incubated for 48 hrs by sulforhodamine B assay; type: functional
HL-60(TB) = assay: Growth inhibition of human HL-60(TB) cells assessed as cell growth at 10^-5 M incubated for 48 hrs by sulforhodamine B assay relative to control; type: functional; conditions: HL-60, 48 h, read-out: Activity
MDA-MB-468 [10] = assay: Growth inhibition of human MDA-MB-468 cells assessed as cell growth at 10^-4 M incubated for 48 hrs by sulforhodamine B assay relative to control; type: functional; conditions: MDA-MB-468, 48 h, read-out: Activity
MDA-MB-468 [11] = assay: Growth inhibition of human MDA-MB-468 cells assessed as cell growth at 10^-7 M incubated for 48 hrs by sulforhodamine B assay relative to control; type: functional; conditions: MDA-MB-468, 48 h, read-out: Activity
SNB-75 [12] = assay: Growth inhibition of human SNB75 cells assessed as cell growth at 10^-6 M incubated for 48 hrs by sulforhodamine B assay relative to control; type: functional; conditions: SNB-75, 48 h, read-out: Activity
MDA-MB-435 = assay: Induction of apoptosis in human MDA-MB-435 cells assessed as increase in gammaH2ax expression by qRT-PCR method; type: functional, cell-based
NCI-H460 [13] = assay: Growth inhibition of human NCI-H460 cells assessed as cell growth at 10^-6 M incubated for 48 hrs by sulforhodamine B assay relative to control; type: functional; conditions: NCI-H460, 48 h, read-out: Activity
BT-549 = assay: Growth inhibition of human BT549 cells assessed as cell growth at 10^-6 M incubated for 48 hrs by sulforhodamine B assay relative to control; type: functional; conditions: BT-549, 48 h, read-out: Activity
NCI-H460 [14] = assay: Growth inhibition of human NCI-H460 cells assessed as cell growth at 10^-7 M incubated for 48 hrs by sulforhodamine B assay relative to control; type: functional; conditions: NCI-H460, 48 h, read-out: Activity
UO-31 [15] = assay: Growth inhibition of human UO31 cells assessed as cell growth at 10^-6 M incubated for 48 hrs by sulforhodamine B assay relative to control; type: functional; conditions: UO-31, 48 h, read-out: Activity
M14 = assay: Growth inhibition of human M14 cells assessed as cell growth at 10^-5 M incubated for 48 hrs by sulforhodamine B assay relative to control; type: functional; conditions: M14, 48 h, read-out: Activity
A549 = assay: Growth inhibition of human A549/ATCC cells assessed as cell growth at 10^-5 M incubated for 48 hrs by sulforhodamine B assay relative to control; type: functional; conditions: A549, 48 h, read-out: Activity
TK-10 = assay: Growth inhibition of human TK10 cells assessed as cell growth at 10^-8 M incubated for 48 hrs by sulforhodamine B assay relative to control; type: functional; conditions: TK-10, 48 h, read-out: Activity
SNB-75 [16] = assay: Growth inhibition of human SNB75 cells assessed as cell growth at 10^-4 M incubated for 48 hrs by sulforhodamine B assay relative to control; type: functional; conditions: SNB-75, 48 h, read-out: Activity
UACC-62 = assay: Growth inhibition of human UACC62 cells assessed as cell growth at 10^-4 M incubated for 48 hrs by sulforhodamine B assay relative to control; type: functional; conditions: UACC-62, 48 h, read-out: Activity
NCI-H322M = assay: Growth inhibition of human NCI-H322M cells assessed as cell growth at 10^-8 M incubated for 48 hrs by sulforhodamine B assay relative to control; type: functional; conditions: read-out: Activity
UO-31 [17] = assay: Growth inhibition of human UO31 cells incubated for 48 hrs by sulforhodamine B assay; type: functional; conditions: UO-31, 48 h
SW-620 [18] = assay: Growth inhibition of human SW620 cells assessed as cell growth at 10^-7 M incubated for 48 hrs by sulforhodamine B assay relative to control; type: functional; conditions: SW-620, 48 h, read-out: Activity
786-0 [19] = assay: Growth inhibition of human 786-0 cells assessed as cell growth at 10^-7 M incubated for 48 hrs by sulforhodamine B assay relative to control; type: functional; conditions: 786-0, 48 h, read-out: Activity
[20] = read-out: LC50 (the source's name)
[21] = read-out: pLC50 (the source's name) (converted)

CCS/C(Nc1ccccc1)=C(\C#N)C(=O)N/N=C\c1ccc(Cl)cc1Cl
growth at 10 µM (EKVX): 35%
growth at 0.1 µM (HCT-116 [1]): 92%
growth at 100 µM (K562): 7%
growth at 1 µM (ACHN [2]): 92%
growth at 0.01 µM (SW-620 [3]): 97%
growth at 100 µM (MDA-MB-231): 9%
growth at 10 µM (HCT-116 [4]): 7%
GI50 (Hs-578T; read-out: GI50): 2.74 µM
CC50 (Hs-578T; [20]): > 100 µM
TGI (Hs-578T; read-out: TGI): 98.7 µM
GI50 (Hs-578T; read-out: pGI50 (converted)): 2.75 µM
CC50 (Hs-578T; [21]): > 100 µM
TGI (Hs-578T; read-out: pTGI (converted)): 97.7 µM
growth at 10 µM (SF-539): 3%
Activity (HL-60 [5]): Active
growth at 0.1 µM (RPMI-8226): 94%
Activity (HL-60 [6]): 79.88%
growth at 0.01 µM (ACHN [7]): 102%
growth at 1 µM (786-0 [8]): 83%
GI50 (ACHN [9]; read-out: GI50): 7.08 µM
CC50 (ACHN [9]; [20]): > 100 µM
TGI (ACHN [9]; read-out: TGI): > 100 µM
GI50 (ACHN [9]; read-out: pGI50 (converted)): 7.08 µM
CC50 (ACHN [9]; [21]): > 100 µM
TGI (ACHN [9]; read-out: pTGI): > 100 µM
growth at 10 µM (HL-60(TB)): 8%
growth at 100 µM (MDA-MB-468 [10]): -7%
growth at 0.1 µM (MDA-MB-468 [11]): 88%
growth at 1 µM (SNB-75 [12]): 76%
Activity (MDA-MB-435): Active
growth at 1 µM (NCI-H460 [13]): 91%
growth at 1 µM (BT-549): 76%
growth at 0.1 µM (NCI-H460 [14]): 98%
growth at 1 µM (UO-31 [15]): 86%
growth at 10 µM (M14): -1%
growth at 10 µM (A549): 29%
growth at 0.01 µM (TK-10): 93%
growth at 100 µM (SNB-75 [16]): -17%
growth at 100 µM (UACC-62): 12%
growth at 0.01 µM (NCI-H322M): 94%
GI50 (UO-31 [17]; read-out: GI50): 6.91 µM
CC50 (UO-31 [17]; [20]): > 100 µM
TGI (UO-31 [17]; read-out: TGI): > 100 µM
GI50 (UO-31 [17]; read-out: pGI50 (converted)): 6.92 µM
CC50 (UO-31 [17]; [21]): > 100 µM
TGI (UO-31 [17]; read-out: pTGI): > 100 µM
growth at 0.1 µM (SW-620 [18]): 92%
growth at 0.1 µM (786-0 [19]): 88%

CCS/C(Nc1ccccc1)=C(\C#N)C(=O)Nc1ccc(OC)cc1
growth at 10 µM (EKVX): 31%
growth at 0.1 µM (HCT-116 [1]): 89%
growth at 100 µM (K562): 10%
growth at 1 µM (ACHN [2]): 90%
growth at 0.01 µM (SW-620 [3]): 97%
growth at 100 µM (MDA-MB-231): -18%
growth at 10 µM (HCT-116 [4]): 3%
GI50 (Hs-578T; read-out: GI50): 4.07 µM
CC50 (Hs-578T; [20]): > 100 µM
TGI (Hs-578T; read-out: TGI): > 100 µM
GI50 (Hs-578T; read-out: pGI50 (converted)): 4.07 µM
CC50 (Hs-578T; [21]): > 100 µM
TGI (Hs-578T; read-out: pTGI (converted)): > 100 µM
growth at 10 µM (SF-539): -41%
Activity (HL-60 [5]): Active
growth at 0.1 µM (RPMI-8226): 89%
Activity (HL-60 [6]): 84%
growth at 0.01 µM (ACHN [7]): 101%
growth at 1 µM (786-0 [8]): 83%
GI50 (ACHN [9]; read-out: GI50): 5.04 µM
CC50 (ACHN [9]; [20]): > 100 µM
TGI (ACHN [9]; read-out: TGI): > 100 µM
GI50 (ACHN [9]; read-out: pGI50 (converted)): 5.01 µM
CC50 (ACHN [9]; [21]): > 100 µM
TGI (ACHN [9]; read-out: pTGI): > 100 µM
growth at 10 µM (HL-60(TB)): 7%
growth at 100 µM (MDA-MB-468 [10]): -24%
growth at 0.1 µM (MDA-MB-468 [11]): 86%
growth at 1 µM (SNB-75 [12]): 81%
Activity (MDA-MB-435): Active
growth at 1 µM (NCI-H460 [13]): 90%
growth at 1 µM (BT-549): 74%
growth at 0.1 µM (NCI-H460 [14]): 98%
growth at 1 µM (UO-31 [15]): 87%
growth at 10 µM (M14): 10%
growth at 10 µM (A549): 35%
growth at 0.01 µM (TK-10): 104%
growth at 100 µM (SNB-75 [16]): -22%
growth at 100 µM (UACC-62): 6%
growth at 0.01 µM (NCI-H322M): 95%
GI50 (UO-31 [17]; read-out: GI50): 5.49 µM
CC50 (UO-31 [17]; [20]): > 100 µM
TGI (UO-31 [17]; read-out: TGI): > 100 µM
GI50 (UO-31 [17]; read-out: pGI50 (converted)): 5.5 µM
CC50 (UO-31 [17]; [21]): > 100 µM
TGI (UO-31 [17]; read-out: pTGI): > 100 µM
growth at 0.1 µM (SW-620 [18]): 94%
growth at 0.1 µM (786-0 [19]): 86%
